Measurements: patent EP4682144A1, “SOLID FORM OF PYRROLIDONE DERIVATIVE AS GLUCOKINASE ACTIVATOR” (Hua Medicine (Shanghai) Ltd., priority 2023, dated 2024)

Assays:
Assay type in all cases: physicochemical
[1] = Preliminary solubility test in solvents at room temperature; settings: listed as crystal form A of the free state
Method: Table 10 Solubility range of the starting material sample at room temperature
The solubility range in the corresponding solvent was calculated based on the mass of the sample and the volume of the added solvent, as shown in Table 28. The data were used as a base to guide the selection of solvent in screening tests. Table 28 Preliminary solubility of crystal form A of the free state at room temperature
The solubility range in the corresponding solvent was calculated based on the mass of the sample and the volume of the added solvent, as shown in Table 35. The data were used as a base to guide the selection of solvent in the screening tests.

[2] = Dynamic vapour sorption (DVS) test
Method: A certain amount of powder was taken and put into a sample pan, and hygroscopicity of the sample was evaluated with DVS according to the following instrument method:

[3] = Dissolution stability in different pH and biologically relevant media (XRPD before and after); settings: pH 1.0, 1.2, 3.0, 4.5, 5.0, 6.8, 7.0, 7.4, 9.0, FaSSGF (pH 1.6), FaSSIF (pH 6.5), FeSSIF (pH 5.0)
[4] = Forced degradation stability test (heat, humidity and heat, light)
Method: Crystal form A of the free state was placed under the following different conditions for the forced degradation stability test: • About 10 mg of the sample powder was weighed into a vial and placed under the conditions of 50 °C, 80°C, and 40 °C/75%RH (unsealed) for 1 day, 2 weeks, and 4 weeks, respectively. And then, the thermal stability was evaluated. • About 10 mg of the sample powder was weighed and placed in a transparent vial, an amber vial, and a transparent vial sealed with aluminum foil, respectively. Those vials were placed in a light box for 10 days, with a total illumination of 1.2×10^6 Lux·hr and a near-UV energy not less than 200w·hr/m^2, for photostability evaluation.
The samples were taken at each time point for HPLC and XRPD analysis to evaluate the chemical and physical stability.

[5] = High-temperature stability test (60°C, HPLC)
Text: (§1) The resulting sample was sampled at day 6, day 14 and day 34 for HPLC analysis.

[6] = High-humidity stability test (90% RH, HPLC)
Text: as §1

[7] = Photostability test (direct sunlight, HPLC)
Text: The resulting sample was sampled at day 4 and day 15 for HPLC analysis.

For `CC(C)C[C@@H](C(=O)Nc1ccn(C[C@@H](O)COC(=O)c2cccnc2)n1)N1CC(Oc2ccccc2Cl)=CC1=O` [Free state crystal form A, (R)-3-(3-((S)-2-(4-(2-chlorophenoxy)-2-oxo-2,5-dihydro-1H-pyrrol-1-yl)-4-methylpentanamido)-1H-pyrazol-1-yl)-2-hydroxypropyl nicotinate], the “Solubility (mg/mL)” value ([1]; 1,4-Dioxane, room temperature) was “S>40.0 mg/mL”, the “Solubility (mg/mL)” value ([1]; Acetone, room temperature) was “S>40.0 mg/mL” and the “Solubility (mg/mL)” value ([1]; CHCl3, room temperature) was “S>40.0 mg/mL”. For the same compound, the “Solubility (mg/mL)” value ([1]; DCM, room temperature) was “S>40.0 mg/mL”, the “Solubility (mg/mL)” value ([1]; DMAc, room temperature) was “S>40.0 mg/mL” and the “Solubility (mg/mL)” value ([1]; DMSO, room temperature) was “S>42.0 mg/mL”. For the same compound, the “Solubility (mg/mL)” value ([1]; H2O, room temperature) was “S<1.0 mg/mL”, the “Solubility (mg/mL)” value ([1]; MTBE, room temperature) was “S<1.0 mg/mL” and the “Solubility (mg/mL)” value ([1]; MeOH, room temperature (25±3 °C)) was “S>42.0 mg/mL”. The “Solubility (mg/mL)” value ([1]; NMP, room temperature) was “S>40.0 mg/mL”, the “Solubility (mg/mL)” value ([1]; THF, room temperature) was “S>40.0 mg/mL” and the “Solubility (mg/mL)” value ([1]; Toluene, room temperature) was “S<1.0 mg/mL”. The “Solubility (mg/mL)” value ([1]; n-Heptane, room temperature) was “S<1.1 mg/mL”, the “Water sorption capacity at 80%RH, %” value ([2]; DVS, 25 °C, 80%RH) was 0.3556% and the “Water sorption capacity at 90%RH, %” value ([2]; DVS, 25 °C, 90%RH) was 0.4782%. For the same compound, the “Water sorption capacity at 95%RH, %” value ([2]; DVS, 25 °C, 95%RH) was 0.6525%, the moisture-induced weight gain ([2]; relative humidity of 95%) was “less than 0.7%” and the moisture-induced weight gain ([2]; relative humidity of less than or equal to 90%, listed as crystal form A of the free state) was “less than 0.5%”. For the same compound, the “crystal form before and after solubility test (XRPD)” value [3] was “does not change”, the “Purity, %” value ([4]; 40°C/75%RH (unsealed), 2 weeks, HPLC) was 99.15% and the “Purity, %” value ([4]; 40°C/75%RH (unsealed), 4 weeks, HPLC) was 99.15%. The “Purity, %” value ([4]; 40°C/75%RH (unsealed), 24 hours, HPLC) was 99.09%, the “Purity, %” value ([4]; 50°C, 2 weeks, HPLC) was 99.10% and the “Purity, %” value ([4]; 50°C, 4 weeks, HPLC) was 99.11%. The “high-temperature and humidity-thermal stability” value ([4]; 50 °C, 80°C, 40 °C/75%RH (unsealed)) was “excellent”, the “crystalline form under forced degradation test conditions (XRPD)” value ([4]; 50 °C, 80°C, 40 °C/75%RH for 1 day, 2 weeks, 4 weeks, light box 10 days) was “does not change” and the “Purity, %” value ([4]; 50°C, 24 hours, HPLC) was 99.08%. The “Purity, %” value ([4]; 80°C, 2 weeks, HPLC) was 99.12%, the “Purity, %” value ([4]; 80°C, 4 weeks, HPLC) was 99.14% and the “Purity, %” value ([4]; 80°C, 24 hours, HPLC) was 99.12%. The “Purity, %” value ([4]; Light-amber vial, 10 days, light box, […]10^6 Lux·hr) was 99.17%, the “Purity, %” value ([4]; Light-transparent vial sealed with aluminum foil, 10 days, light box, […]10^6 Lux·hr) was 99.17% and the “Purity, %” value ([4]; Light-transparent vial, 10 days, light box, […]10^6 Lux·hr) was 99.10%. The “Purity, %” value ([4]; Starting, 0h, HPLC) was 99.10%, the “effect of light on the stability” value ([4]; light box 10 days, […]10^6 Lux·hr) was “no effect” and the “Purity (Area%)” value ([5]; 0h) was 98.17 Area%. The “stability at high temperature” value ([5]; 60°C for 14 days) was “still stable”, the “Purity (Area%)” value ([5]; 60°C, Day 6, without cover) was 99.03 Area% and the “Purity (Area%)” value ([5]; 60°C, Day 14, without cover) was 99.11 Area%. The “Purity (Area%)” value ([6]; 0 hour) was 98.17 Area%, the “stability at high humidity” value ([6]; 90% relative humidity for 14 days) was “still stable” and the “Purity (Area%)” value ([6]; 90%RH, Day 6, without cover) was 98.99 Area%. The “Purity (Area%)” value ([6]; 90%RH, Day 14, without cover) was 99.09 Area%, the “Purity (Area%)” value ([7]; 0 hour) was 98.17 Area% and the “Purity (Area%)” value ([7]; Photostability Day 4, direct sunlight) was 99.07 Area%. For the same compound, the “Purity (Area%)” value ([7]; Photostability Day 15, direct sunlight) was 99.10 Area% and the stability under sunlight ([7]; sunlight for 15 days) was “still stable”.
